Assay results taken from patent US8318928B2, “Fused imidazole carboxamides as TRPV3 modulators” (Glenmark Pharmaceuticals, S.A., priority 2008, dated 2012).

Target: T1, Human TRPV3 expressing CHO cells (Homo sapiens, UniProt Q8NET8)
T1 construct: expressed in transfected cells; host or cells: CHO cells, kept under G-418 selection
T1 sequence (Q8NET8 1-790): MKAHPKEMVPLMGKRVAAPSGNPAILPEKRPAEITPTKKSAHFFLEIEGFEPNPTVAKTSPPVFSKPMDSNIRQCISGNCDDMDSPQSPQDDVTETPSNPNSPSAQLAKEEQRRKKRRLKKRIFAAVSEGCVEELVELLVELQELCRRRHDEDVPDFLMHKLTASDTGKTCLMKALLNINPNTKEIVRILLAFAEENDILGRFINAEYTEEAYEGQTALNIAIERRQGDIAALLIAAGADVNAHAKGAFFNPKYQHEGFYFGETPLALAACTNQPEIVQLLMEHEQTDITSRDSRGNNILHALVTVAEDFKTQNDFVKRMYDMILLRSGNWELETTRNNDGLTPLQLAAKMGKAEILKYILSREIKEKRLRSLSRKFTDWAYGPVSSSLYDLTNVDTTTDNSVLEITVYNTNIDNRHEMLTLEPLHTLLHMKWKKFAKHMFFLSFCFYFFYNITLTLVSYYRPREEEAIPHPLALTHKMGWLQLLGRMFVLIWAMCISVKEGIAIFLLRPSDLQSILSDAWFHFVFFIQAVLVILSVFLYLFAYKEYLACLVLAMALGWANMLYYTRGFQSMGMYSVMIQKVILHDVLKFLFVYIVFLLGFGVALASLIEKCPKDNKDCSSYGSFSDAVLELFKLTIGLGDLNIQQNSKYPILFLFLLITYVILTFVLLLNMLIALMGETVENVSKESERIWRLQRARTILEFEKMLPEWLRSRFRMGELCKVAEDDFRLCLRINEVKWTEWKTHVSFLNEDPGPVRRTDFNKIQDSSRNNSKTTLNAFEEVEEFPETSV
Test: 45Calcium uptake assay: inhibition of 2-APB induced cellular uptake of radioactive calcium
Format: cell-based
Settings: 2-APB 500 μM; for Percentage inhibition at 1.0 μM / inhibition at 1 µM: compound at 1.0 μM; for Percentage inhibition at 10.0 μM / inhibition at 10 µM: compound at 10.0 μM; for inhibition at 1 µM: read-out: Percentage inhibition at 1.0 μM; for inhibition at 10 µM: read-out: Percentage inhibition at 10.0 μM; for IC50: class symbols
Text: Certain illustrative compounds within the scope of the present invention are screened for TRPV3 activity according to a modified procedure described in (a) Tóth, A. et al. Life Sciences 2003, 73, 487-498. (b) McNamara C, R. et al. Proc. Natl. Acad. Sci. U.S.A., 2007, 104, 13525-13530. The screening of the compounds may be carried out by other methods and procedures known to persons skilled in the art.
Screening for TRPV3 Antagonist Using the ^45Calcium Uptake Assay
The inhibition of TRPV3 receptor activation was followed as inhibition of 2-aminoethxydiphenylborate (2-APB) induced cellular uptake of radioactive calcium. Test compounds were dissolved in dimethyl sulfoxide (DMSO) to prepare 20 mM stock solution and then diluted using plain medium with DMEM/F-12 containing 1.8 mM CaCl2 to get desired concentration. Final concentration of DMSO in the reaction was 0.5% (v/v). Human TRPV3 expressing CHO cells were grown in DMEM/F-12 medium with 10% FBS, 1% penicillin-streptomycin solution, 400 μg/mL of G-418. Cells were seeded 24 h prior to the assay in 96 well plates so as to get ˜50,000 cells per well on the day of experiment. Cells were treated with test compounds for 10 minutes followed by addition of 2-APB at a final concentration of 500 μM and 5 μCi/mL ^45Ca^+2 for 4 minutes. Cells were washed and lysed using buffer containing 1% Triton X-100, 0.1% deoxycholate and 0.1% SDS. Radioactivity in the lysate was measured in Packardt Top count after addition of liquid scintillant. Concentration response curves were plotted as a % of maximal response obtained in the absence of test antagonist. IC50 value was calculated from concentration response curve by nonlinear regression analysis using GraphPad PRISM software.
Percentage inhibition at concentrations of 1.0 μM and 10.0 μM are given in the table along with IC50 (nM) details for selected examples.

Molecule | Percentage inhibition at 1.0 μM [%] | Percentage inhibition at 10.0 μM [%] | inhibition at 1 µM [%] | inhibition at 10 µM [%] | IC50 [nM]
CC(C)CCOc1c(/C=C/c2nc3ccccn3c2C(=O)Nc2nc(C(F)(F)F)cs2)cccc1OC(F)F [Example 41, 2-{(E)-2-[3-(Difluoromethoxy)-2-(3-methylbutoxy)phenyl]vinyl}-N-[4-(trifluoromethyl)-1,3-thiazol-2-yl]imidazo[1,2-c]pyridine-3-carboxamide] | 52.99 | 84.65 | – | – | –
CC(C)(C)COc1c(/C=C/c2nc3sccn3c2C(=O)NCCC#N)cccc1OC(F)F [Example 30, N-(2-Cyanoethyl)-6-{(E)-2-[3-(difluoromethoxy)-2-(2,2-dimethylpropoxy)phenyl]vinyl}imidazo[2,1-b][1,3]thiazole-5-carboxamide] | – | – | 21.1 | 94 | –
COc1cccc(/C=C/c2nc3sccn3c2C(=O)Nc2nc(C(F)(F)F)cs2)c1OCC(C)(C)C [Example 7, 6-{(E)-2-[2-(2,2-Dimethylpropoxy)-3-methoxyphenyl]vinyl}-N-[4-(trifluoromethyl)-1,3-thiazol-2-yl]imidazo[2,1-b][1,3]thiazole-5-carboxamide] | – | – | 95.5 | 99.5 | < 100
COc1cccc(/C=C/c2nc3sccn3c2C(=O)Nc2ccc(OC(F)(F)F)cc2)c1OCC1CC1 [Example 1, 6-[(E)-2-(2-Cyclopropylmethoxy-3-methoxyphenyl)vinyl]-N-[4-(trifluoromethoxy)phenyl]imidazo[2,1-b][1,3]thiazole-5-carboxamide] | – | – | 9.3 | 38.6 | –
CCN(C(=O)c1c(/C=C/c2cccc(OC)c2OCC(C)(C)C)nc2sccn12)c1nc(C(F)(F)F)cs1 [Example 11, N-Ethyl-6-{(E)-2-[2-(2,2-dimethylpropoxy)-3-methoxyphenyl]vinyl}-N-[4-(trifluoro-methyl)-1,3-thiazol-2-yl]imidazo[2,1-b][1,3]thiazole-5-carboxamide] | – | – | 75.1 | 84.8 | < 100
CC(C)(C)COc1c(/C=C/c2nc3sccn3c2C(=O)Nc2ccc(C#N)cn2)cccc1OC(F)F [Example 26, N-(5-Cyanopyridin-2-yl)-6-{(E)-2-[3-(difluoromethoxy)-2-(2,2-dimethylpropoxy)phenyl]vinyl}imidazo[2,1-b][1,3]thiazole-5-carboxamide] | – | – | 70.1 | 77.5 | –
CC(C)(C)COc1c(/C=C/c2nc3sccn3c2C(=O)Nc2nc3ccc(F)cc3s2)cccc1OC(F)F [Example 29, 6-{(E)-2-[3-(Difluoromethoxy)-2-(2,2-dimethylpropoxy)phenyl]vinyl}-N-(6-fluoro-1,3-benzothiazol-2-yl)imidazo[2,1-b][1,3]thiazole-5-carboxamide] | – | – | 24 | 15.3 | –
O=C(Nc1nc(C(F)(F)F)cs1)c1c(/C=C/c2cccc(OC(F)F)c2OCC2CCC2)nc2sccn12 [Example 36, 6-{(E)-2-[2-(Cyclobutylmethoxy)-3-(difluoromethoxy)phenyl]vinyl}-N-[4-(trifluoro-methyl)-1,3-thiazol-2-yl]imidazo[2,1-b][1,3]thiazole-5-carboxamide] | – | – | 93.7 | 97.7 | 100 to 250
CC(C)(C)COc1c(/C=C/c2nc3sccn3c2C(=O)Nc2nc(C3CCC3)cs2)cccc1OC(F)F [Example 22, 6-{(E)-2-[2-(2,2-Dimethylpropoxy)-3-(difluoromethoxy)phenyl]vinyl}-N-(4-cyclobutyl-1,3-thiazol-2-yl)imidazo[2,1-b][1,3]thiazole-5-carboxamide] | – | – | 47.9 | 86.5 | –
CCCCCOc1c(/C=C/c2nc3sccn3c2C(=O)Nc2nc(C3CC3)cs2)cccc1OC(F)F [Example 34] | – | – | 78.1 | 95 | 100 to 250
COc1cccc(/C=C/c2nc3sccn3c2C(=O)Nc2nc(C(F)(F)F)cs2)c1OCC1CC1 [Example 2, 6-[(E)-2-(2-Cyclopropylmethoxy-3-methoxyphenyl)vinyl]-N-[4-(trifluoromethyl)-1,3-thiazol-2-yl]imidazo[2,1-b][1,3]thiazole-5-carboxamide] | – | – | 73.2 | 97.6 | 250 to 1000
COc1cccc(/C=C/c2nc3sccn3c2C(=O)Nc2nc(C(F)(F)F)cs2)c1OCC(C)C [Example 6, 6-{(E)-2-[2-(Isobutoxy)-3-methoxyphenyl]vinyl}-N-[4-(trifluoromethyl)-1,3-thiazol-2-yl]imidazo[2,1-b][1,3]thiazole-5-carboxamide] | – | – | 93 | 98.8 | 250 to 1000
COc1cccc(/C=C/c2nc3sccn3c2C(=O)Nc2nc(-c3ccc(C#N)cc3)cs2)c1OCC(C)(C)C [Example 15, N-[4-(4-Cyanophenyl)-1,3-thiazol-2-yl]-6-{(E)-2-[2-(2,2-dimethylpropoxy)-3-methoxyphenyl]vinyl}imidazo[2,1-b][1,3]thiazole-5-carboxamide] | – | – | 20.7 | 26.6 | –
COc1cccc(/C=C/c2nc3sccn3c2C(=O)Nc2nc(C(F)(F)F)cs2)c1OC1CCCC1 [Example 16, 6-[(E)-2-(2-Cyclopentyloxy-3-methoxyphenyl)vinyl]-N-[4-(trifluoromethyl)-1,3-thiazol-2-yl]imidazo[2,1-b][1,3]thiazole-5-carboxamide] | – | – | 81.7 | 93.1 | 250 to 1000
CC(C)(C)COc1c(/C=C/c2nc3sccn3c2C(=O)Nc2nc(C(F)(F)F)cs2)cccc1OC(F)F [Example 18, 6-{(E)-2-[3-Difluoromethoxy-2-(2,2-dimethylpropoxy)phenyl]vinyl}-N-[4-(trifluoro-methyl)-1,3-thiazol-2-yl]imidazo[2,1-b][1,3]thiazole-5-carboxamide] | – | – | 96.9 | 98.2 | < 100
COc1cccc(/C=C/c2nc3ccccn3c2C(=O)Nc2nc(C(F)(F)F)cs2)c1OCC(C)(C)C [Example 37] | – | – | 94.9 | 97.9 | < 100
2-{(E)-2-[3-(Difluoromethoxy)-2-(2,2-dimethylpropoxy)phenyl]vinyl}-N-[4-(trifluoro-methyl)-1,3-thiazol-2-yl]imidazo[1,2-c]pyridine-3-carboxamide [Example 38] | 87.67 | 97.11 | – | – | –
O=C(Nc1nc(C(F)(F)F)cs1)c1c(/C=C/c2cccc(O)c2O)nc2sccn12 [Example 19, 6-[(E)-2-(2,3-Dihydroxyphenyl)vinyl]-N-[4-(trifluoromethyl)-1,3-thiazol-2-yl]imidazo[2,1-b][1,3]thiazole-5-carboxamide] | – | – | 13.9 | 4.88 | –
CC(C)c1csc(NC(=O)c2c(/C=C/c3cccc(OC(F)F)c3OCC(C)(C)C)nc3sccn23)n1 [Example 20, 6-{(E)-2-[2-(2,2-Dimethylpropoxy)-3-(difluoromethoxy)phenyl]vinyl}-N-(4-isopropyl-1,3-thiazol-2-yl)imidazo[2,1-b][1,3]thiazole-5-carboxamide] | – | – | 53.3 | 81.7 | –
COc1cccc(/C=C/c2nc3sccn3c2C(=O)N2CCn3c(nnc3C(F)(F)F)C2)c1OCC(C)(C)C [Example 14] | 10.33 | 15.45 | – | – | –
